Patent US7491707B1, “Synthetic lipid-a-analogs and uses thereof” (Biomira, Inc., priority 1999, dated 2009)
“Also recorded” adds a separate entry of the source.

Experiments:
Interferon-gamma (IFN-γ) = Interferon-gamma (IFN-γ) production in cell culture supernatants by ELISA, lymphocytes of mice immunized with adjuvanted MUC1 liposomal vaccine; type: in vivo, C57-Black mice; details: for Interferon-gamma (IFN-γ, pg/ml): s.c. liposomal vaccine 40 μg BP1-148 + 20 μg Lipid-A analog per dose, nine days after injection; for interferon-gamma production: in words, liposomal vaccine formulations in mice, FIG. 31-FIG. 33
Protocol: (§1) Typically, the liposomal formulation was composed of 400 μg of MUC1-based lipopeptide BP1-148, H2N-[…](Pal)G-OH, 200 μg of Lipid-A analog, 6.94 mg of cholesterol, 1.46 mg of dimyristoyl phosphatidylglycerol ([…]) and 11.62 mg of dipalmitoyl phosphatidylcholine (DPPC) per 1 ml of saline (0.9% NaCl solution).
(§2) The liposomal constructs were formulated by first dissolving the phospholipids, cholesterol and Lipid A analog in tert-butanol at about 53° C. Lipopeptide and water (5%, v/v) were then added to the tert-butanol solution. The resulting clear 95% tert-butanol solution was injected into about 4 volumes of rapidly stirred water at about 50° C., using a glass syringe with an 18-gauge needle. The small unilamellar vesicles (SUV) formed in this process were cooled, sterilized by filtration through a 0.22 μm membrane filter, filled into vials and lyophilized. The dry powder was re-hydrated with sterile saline before injection, resulting in the formation of multilamellar large vesicles (MLV). The liposomes formed are used to immunize mice.
(§3) Groups of C57-Black mice were immunized subcutaneously with the liposomal vaccine containing 40 μg of MUC1-based lipopeptide BP1-148 (FIG. 34), which has the peptide sequence of H2N-[…](Pal) G-OH, and 20 μg of Lipid-A analog per dose. Nine days after vaccine injection mice were sacrificed and lymphocytes were taken from the draining lymph nodes (local response) or from the spleens (systemic response) to determine the immune response in each group. The lymphocytes taken from immunized mice were incubated in in vitro cultures in the presence of MUC1-based boosting antigen BP1-151, which has the peptide sequence H2N-[…]-OH.
Interferon-gamma (IFN-γ) levels were determined in the cell culture supernatants using enzyme-linked immunoabsorbent assay (ELISA). 96-Well plates were coated with 50 μl of catcher Mabs in 50 μl of R4.6AZ at 37° C. for 30 min. The plates were then washed and incubated with test samples for 45 min. After two washes the second biotinylated antibody, XMG1.2 was added. After washing, peroxidase-conjugated streptavidin was added and incubated again for 30 min. Finally, 100 μl of horseradish peroxidase (HRPO) substrate solution was added. The optical density was measured with a Thermomax ELISA reader at 405 nm wavelength in kinetic mode for 10 min. The interferon-gamma (IFN-γ) levels corresponding to various Lipid-A analogs are shown in Table 1-Table 3 and FIG. 31-FIG. 33.

[1] = test system: immune response to MUC1-based lipopeptide BP1-148; experiment: Adjuvanticity of Lipid-A analogs in liposomal vaccine with MUC1 lipopeptide BP1-148 (T-cell blastogenesis and IFN-γ production); type: in vivo, mice; details: in words; liposomal formulations with BP1-148 in mice, FIGS. 31-33
Source text: Liposome formulations have been used to evaluate the adjuvant properties of various synthetic Lipid-A structures and the immune responses to a synthetic lipopeptide antigen BP-148, H2N-[…](Pal)G-OH (FIG. 34), a modified 25-amino-acid sequence derived from tumor-associated MUC1 mucin. The commercially available Lipid-A product, which is currently under clinical evaluation as an adjuvant for vaccine programs, was used for comparison. The natural Lipid-A product, purchased from AVANTI, contained a mixture of Lipid-A analogs extracted from Salmonella bacterial cell wall and is designated as Natural Lipid-A in this invention.
Thus, the liposomal formulations containing the synthetic lipopeptide antigen, BP1-148, and Lipid-A analogs 33, 48, 54, 58, 70, 77, 86, 94, 102, 104 or Natural Lipid-A, were used to immunize mice to measure their immune response in terms of T-cell blastogenesis and interferon-gamma (IFN-γ) production. The compounds were tested in three groups at different time and their preliminary results are shown separately in FIGS. 31-33. As the variations are attributed to different factors such as animal groups and experimental factors, the data from different groups will not be compared.
as §3

T-cell = T-cell proliferation (3H thymidine incorporation) of lymph node lymphocytes from mice immunized with MUC1-based liposomal vaccine adjuvanted with Lipid-A analog; type: in vivo, C57-Black mice; details: for T-cell-Proliferation (CPM): s.c. liposomal vaccine 40 μg BP1-148 + 20 μg Lipid-A analog per dose, nine days after injection, boosting antigen BP1-151; for T-cell blastogenesis: in words, liposomal vaccine formulations in mice, FIG. 31-FIG. 33
Protocol: as §1, §2, §3
T-cell proliferation was evaluated using a standard ^3H thymidine incorporation assay. Briefly, nylon wool passed inguinal lymph node lymphocytes from each mouse were added to a culture containing 106 native mitomycin C treated syngeneic splenocytes, which serves as antigen presenting cells (APCs). To each well 20 μg of MUC1-based boosting peptide BP1-151, H2N-[…]-OH (single letter amino acid code, Table 8), was added for positive control; and cultures containing no antigen or peptide BP1-72, which has the peptide sequence H2N-[…]-OH, were used as negative control. The culture was incubated for 72 h in a total volume of 250 μl well, followed by adding 1 μCi of ^3H-thymidine in a volume of 50 μl. The plates were incubated for an additional 18-20 h. Cells were harvested and [^3H]dTh incorporation was measured by liquid scintillation counter. T-cell proliferation results corresponding to various liposomal vaccines adjuvanted, with different Lipid-A analogs are summarized in Tables 1-Table 3 and FIG. 31-FIG. 33.

`CCCCCCCCCCCCO[C@H](CCCCCCCCCCC)CC(=O)N[C@H]1[C@H](OC[C@H]2OC(O)[C@H](NC(=O)C[C@@H](CCCCCCCCCCC)OC(=O)C[C@@H](CCCCCCCCCCC)OCCCCCCCCCCCC)[C@@H](O)[C@@H]2O)O[C@H](CO)[C@@H](OP(=O)(O)O)[C@@H]1OC(=O)C[C@@H](CCCCCCCCCCC)OCCCCCCCCCCCC` (stereo partly drawn) [Compound 102, 2-Deoxy-6-O-{2-deoxy-4-O-phosphono-2-[(3R)-3-dodecyloxytetradecanamido]-3-O-[(3R)-3-dodecyloxytetradecanoyl]-β-D-glucopyranosyl}-2-{(3R)-3-[(3R)-3-dodecyloxytetradecanoyloxy]-tetradecanamido}-α/β-D-glucopyranose] was tested, and the “Interferon-gamma (IFN-γ, pg/ml)” value (Interferon-gamma (IFN-γ); Table 3, third test group) was 10587 pg/mL, the interferon-gamma production (Interferon-gamma (IFN-γ)) was “high levels of interferon-gamma” and the “adjuvant activity compared to Natural Lipid-A (Lipid-A preparation of bacterial origin)” value [1] was “similar; also recorded: as effective”. The “T-cell-Proliferation (CPM)” value (T-cell; Table 3, third test group) was 13389 CPM and the T-cell blastogenesis (T-cell) was “significant T-cell blastogenesis”.
In the case of `CCCCCCCCCCCCCC(=O)O[C@H](CCCCCCCCCCC)CC(=O)N[C@H]1[C@H](OC[C@H]2OC(O)[C@H](NC(=O)C[C@@H](CCCCCCCCCCC)OC(=O)CCCCCCCCCCCCC)[C@@H](O)[C@@H]2O)O[C@H](CO)[C@@H](OP(=O)(O)O)[C@@H]1OC(=O)C[C@@H](CCCCCCCCCCC)OC(=O)CCCCCCCCCCCCC` (stereo partly drawn) [Compound 54, 2-Deoxy-6-O-{2-deoxy-4-O-phosphono-2-[(3R)-3-tetradecanoyloxytetradecanamido]-3-O-[(3R)-3-tetradecanoyloxytetradecanoyl]-β-D-glucopyranosyl}-2-[(3R)-3-tetradecanoyloxytetradecanamido]-α/β-D-glucopyranose], the “Interferon-gamma (IFN-γ, pg/ml)” value (Interferon-gamma (IFN-γ); Table 2, second test group) is reported as 36166 pg/mL, the interferon-gamma production (Interferon-gamma (IFN-γ)) is reported as “high levels of interferon-gamma” and the “adjuvant activity compared to Natural Lipid-A (Lipid-A preparation of bacterial origin)” value [1] is reported as “as effective”. For the same molecule, the “T-cell-Proliferation (CPM)” value (T-cell; Table 2, second test group) was 32976 CPM and the T-cell blastogenesis (T-cell) was “significant T-cell blastogenesis”.
With `CCCCCCCCCCCCO[C@H](CCCCCCCCCCC)CC(=O)O[C@H](CCCCCCCCCCC)CC(=O)N[C@H]1C(O)O[C@H](CO[C@@H]2O[C@H](CO)[C@@H](OP(=O)(O)O)[C@H](OC(=O)C[C@@H](CCCCCCCCCCC)OCCCCCCCCCCCC)[C@H]2NC(=O)C[C@H](O)CCCCCCCCCCC)[C@@H](O)[C@@H]1O` (stereo partly drawn) [Compound 104, 2-Deoxy-6-O-{2-deoxy-4-O-phosphono-2-[(3R)-3-hydroxytetradecanamido]-3-O-[(3R)-3-dodecyloxytetradecanoyl]-β-D-glucopyranosyl}-2-{(3R)-3-[(3R)-3-dodecyloxytetradecanoyloxy]-tetradecanamido}-α/β-D-glucopyranose] the “Interferon-gamma (IFN-γ, pg/ml)” value (Interferon-gamma (IFN-γ); Table 3, third test group) was 14669 pg/mL, the interferon-gamma production (Interferon-gamma (IFN-γ)) was “high levels of interferon-gamma” and the “adjuvant activity compared to Natural Lipid-A (Lipid-A preparation of bacterial origin)” value [1] was “similar; also recorded: as effective”. The “T-cell-Proliferation (CPM)” value (T-cell; Table 3, third test group) was 12635 CPM and the T-cell blastogenesis (T-cell) was “significant T-cell blastogenesis”.
In the case of `CCCCCCCCCCCCO[C@H](CCCCCCCCCCC)CC(=O)N[C@H]1[C@H](OC[C@H]2OC(O)[C@H](NC(=O)C[C@@H](CCCCCCCCCCC)OCCCCCCCCCCCC)[C@@H](OC(=O)C[C@H](O)CCCCCCCCCCC)[C@@H]2O)O[C@H](CO)[C@@H](OP(=O)(O)O)[C@@H]1OC(=O)C[C@@H](CCCCCCCCCCC)OCCCCCCCCCCCC` (stereo partly drawn) [Compound 94, 2-Deoxy-6-O-{2-deoxy-4-O-phosphono-2-[(3R)-3-dodecyloxytetradecanamido]-3-O-[(3R)-3-dodecyloxytetradecanoyl]-β-D-glucopyranosyl}-3-O-[(3R)-3-hydroxytetradecanoyl]-2-[(3R)-3-dodecyloxytetradecanamido]-α/β-D-glucopyranose], the “Interferon-gamma (IFN-γ, pg/ml)” value (Interferon-gamma (IFN-γ); Table 3, third test group) is reported as 2150 pg/mL, the interferon-gamma production (Interferon-gamma (IFN-γ)) is reported as “low” and the “T-cell-Proliferation (CPM)” value (T-cell; Table 3, third test group) is reported as 10882 CPM. The T-cell blastogenesis (T-cell) was “significant T-cell blastogenesis”.
